Reference: ChEMBL document CHEMBL1124091, “Synthesis, resolution, and absolute configuration of the isomers of the neuronal excitant 1-amino-1,3-cyclopentanedicarboxylic acid” (J Med Chem, 1988)

assay: Repolarization time for compound was measured by pattern firing by APN and KVN blockade; type: functional; parameters: unit not given here

Point of comparison: `N[C@@]1(C(=O)O)CC[C@H](C(=O)O)C1` (stereo in doubt; trans), Repolarization time 17. Against it:
- N[C@H](Cn1oc(=O)[nH]c1=O)C(=O)O — lower, 7.8
- N[C@]1(C(=O)O)CC[C@@H](C(=O)O)C1 — lower, 10.5
- C=C(C)[C@H]1CN[C@H](C(=O)O)[C@H]1CC(=O)O — higher, 19.9
- N[C@@]1(C(=O)O)CC[C@H](C(=O)O)C1 (stereo in doubt; cis) — lower, 15
- CN[C@H](CC(=O)O)C(=O)O — lower, 8
- N[C@]1(C(=O)O)CC[C@H](C(=O)O)C1 — lower, 12.7
